Reference: patent US11673894B2, “Imidazopyrimidines and triazolopyrimidines as A2A / A2B inhibitors” (Incyte Corporation, priority 2018, dated 2023)

Legend:
[1] = target: Adenosine A2A receptor (Homo sapiens (Human), UniProt P29274); test: A2A Tag-lite HTRF Assay; conditions: Tag-lite Adenosine A2A labeled cells; A2A Receptor Red antagonist fluorescent ligand 12.5 nM; one-site competitive binding model; read-out: A2A_Ki
Excerpt: The final concentration of DMSO was 1%.

[2] = target: human adenosine A2B receptor (Homo sapiens (Human), UniProt P29275); test: Adenosine A2B Receptor Cyclic AMP GS Assay; format: cell-based; conditions: HEK-293 cells expressing human A2B receptor; agonist NECA at 12 nM; cAMP accumulation (FRET); read-out: A2B_cAMP_EC50
Chain of human adenosine A2B receptor (P29275 whole entry): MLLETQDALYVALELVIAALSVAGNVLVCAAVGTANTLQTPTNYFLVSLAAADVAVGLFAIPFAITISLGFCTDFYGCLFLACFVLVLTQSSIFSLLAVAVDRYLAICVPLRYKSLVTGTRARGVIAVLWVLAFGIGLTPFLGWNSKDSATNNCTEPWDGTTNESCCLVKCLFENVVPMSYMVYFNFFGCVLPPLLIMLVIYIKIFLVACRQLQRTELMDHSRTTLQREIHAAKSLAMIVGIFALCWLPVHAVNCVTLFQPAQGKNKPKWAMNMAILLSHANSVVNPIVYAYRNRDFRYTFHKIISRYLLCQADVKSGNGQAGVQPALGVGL
Experimental: Stably transfected HEK-293 cells expressing the human adenosine A2B receptor (Perkin Elmer) were maintained in MEM culture medium with 10% FBS and 100 μg/ml Geneticin (Life Technologies). 18 to 24 hours prior to assay, geneticin was removed from culture. The cisbio cAMP-GS Dynamic kit utilizing the FRET (Fluorescence Resonance Energy Transfer) technology was used to measure cAMP accumulation in the cells. Compounds of the present disclosure at an appropriate concentration were mixed with 10000 cells/well in white 96 well half area plates (Perkin Elmer) for 30 min at RT gently shaking. Agonist, NECA (R&D Technologies) at 12 nM was added to each well for 60 min at RT gently shaking. Detection reagents, d2-labeled cAMP (acceptor) and anti-cAMP cryptate (donor) were added to each well for 60 min at RT gently shaking. Plates were read on Pherastar (BMG Labtech), fluorescence ratio 665/620 was calculated and EC50 determination was performed by fitting the curve of percent of control versus the log of the compound concentration using GraphPad Prism.

Chain of Adenosine A2A receptor (P29274 whole entry): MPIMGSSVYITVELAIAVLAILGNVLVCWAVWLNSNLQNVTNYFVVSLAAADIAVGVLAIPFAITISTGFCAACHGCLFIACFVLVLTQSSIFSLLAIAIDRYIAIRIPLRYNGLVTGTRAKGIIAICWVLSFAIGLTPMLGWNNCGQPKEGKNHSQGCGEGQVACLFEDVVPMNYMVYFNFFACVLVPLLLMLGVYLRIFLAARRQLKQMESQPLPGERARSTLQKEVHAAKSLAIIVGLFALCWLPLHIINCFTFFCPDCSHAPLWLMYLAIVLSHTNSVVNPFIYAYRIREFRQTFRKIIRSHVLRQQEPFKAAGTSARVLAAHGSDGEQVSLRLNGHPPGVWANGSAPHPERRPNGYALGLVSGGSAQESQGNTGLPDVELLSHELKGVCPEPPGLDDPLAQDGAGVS

SMILES | Ki [1] [nM] | EC50 [2] [nM]
CCc1ncoc1-c1c(-c2cccc(C#N)c2)nc(N)n2nc(Cc3ccccn3)nc12 [Example 82, 3-(5-Amino-8-(4-ethyloxazol-5-yl)-2-(pyridin-2-ylmethyl)-[1,2,4]triazolo[1,5-c]pyrimidin-7-yl)benzonitrile] | < 10 | < 10
CCNC(=O)c1cn2c(NCC)nc(-c3ccccc3)c(-c3cc(C)nc(C)c3)c2n1 [Example 22, 8-(2,6-Dimethylpyridin-4-yl)-N-ethyl-5-(ethylamino)-7-phenylimidazo[1,2-c]pyrimidine-2-carboxamide] | 10 to 100 | > 1000
Cc1nc(CO)c(-c2c(-c3cccc(C#N)c3)nc(N)n3nc(Cc4ccccn4)nc23)o1 [Example 62, 3-(5-Amino-8-(4-(hydroxymethyl)-2-methyloxazol-5-yl)-2-(pyridin-2-ylmethyl)-[1,2,4]triazolo[1,5-c]pyrimidin-7-yl)benzonitrile] | < 10 | < 10
N#Cc1cccc(-c2nc(N)n3nc(COc4ccccc4C#N)nc3c2-c2ccncn2)c1 [Example 96, 2-((5-Amino-7-(3-cyanophenyl)-8-(pyrimidin-4-yl)-[1,2,4]triazolo[1,5-c]pyrimidin-2-yl)methoxy)benzonitrile] | < 10 | < 10
Cc1ncoc1-c1c(-c2cccc(C#N)c2)nc(N)n2nc(Cc3cccc(C(F)(F)F)n3)nc12 [Example 89, 3-(5-Amino-8-(4-methyloxazol-5-yl)-2-((6-(trifluoromethyl)pyridin-2-yl)methyl)-[1,2,4]triazolo[1,5-c]pyrimidin-7-yl)benzonitrile] | < 10 | < 10
Cc1cc(C(F)(F)F)nn1Cc1nc2c(-c3ccncn3)c(-c3cccc(C#N)c3)nc(N)n2n1 [Example 81, 3-(5-Amino-2-((5-methyl-3-(trifluoromethyl)-1H-pyrazol-1-yl)methyl)-8-(pyrimidin-4-yl)-[l*2,4]triazolo[1,5-c]pyrimidin-7-yl)benzonitrile] | < 10 | < 10
Nc1nc(-c2ccncc2)c(-c2ccncc2)c2nccn12 [Example 5, 7,8-Di(pyridin-4-yl)imidazo[1,2-c]pyrimidin-5-amine] | 10 to 100 | 10 to 100
N#Cc1cccc(-c2nc(N)n3nc(C(Oc4ccccn4)c4ccccc4)nc3c2-c2ccncn2)c1 (centres unmarked) [Example 71, 3-(5-Amino-2-(phenyl(pyridin-2-yloxy)methyl)-8-(pyrimidin-4-yl)-[1,2,4]triazolo[1,5-c]pyrimidin-7-yl)benzonitrile] | < 10 | 10 to 100
CCn1cc(-c2c(-c3cccc(C#N)c3)nc(N)n3cc(C(=O)Nc4cnn(CCO)c4)nc23)ccc1=O [Example 25, 5-Amino-7-(3-cyanophenyl)-8-(1-ethyl-6-oxo-1,6-dihydropyridin-3-yl)-N-(1-(2-hydroxyethyl)-1H-pyrazol-4-yl)imidazo[1,2-c]pyrimidine-2-carboxamide] | < 10 | 100 to 1000
N#Cc1cccc(-c2nc(N)n3nc([C@H](O)c4ccccc4)nc3c2-c2ccncn2)c1 [Example 65, (R)-3-(5-amino-2-(hydroxy(phenyl)methyl)-8-(pyrimidin-4-yl)-[1,2,4]triazolo[1,5-c]pyrimidin-7-yl)benzonitrile] | < 10 | < 10
N#Cc1cccc(-c2nc(N)n3nc(Cc4ccccc4F)nc3c2-c2ccncn2)c1 [Example 49, 3-(5-Amino-2-(2-fluorobenzyl)-8-(pyrimidin-4-yl)-[1,2,4]triazolo[1,5-c]pyrimidin-7-yl)benzonitrile] | < 10 | < 10
Nc1nc(-c2ccccc2F)c(-c2ccncc2)c2nccn12 [Example 7, 7-(2-Fluorophenyl)-8-(pyridin-4-yl)imidazo[1,2-c]pyrimidin-5-amine] | 10 to 100 | 10 to 100
N#Cc1cccc(-c2nc(N)n3nc(Cc4c(F)cccc4CN4C(=O)CNC4=O)nc3c2-c2ccncn2)c1 [Example 75, 3-(5-Amino-2-(2-((2,5-dioxoimidazolidin-1-yl)methyl)-6-fluorobenzyl)-8-(pyrimidin-4-yl)-[1,2,4]triazolo[1,5-c]pyrimidin-7-yl)benzonitrile] | < 10 | < 10
Cc1cc(-c2c(-c3ccccc3)nc(N)n3cc(-c4ccccc4)nc23)ccn1 [Example 10, 8-(2-Methylpyridin-4-yl)-2,7-diphenylimidazo[1,2-c]pyrimidin-5-amine] | < 10 | 100 to 1000
CCCn1nccc1-c1c(-c2cccc(C#N)c2)nc(N)n2cc(C(=O)NCC)nc12 [Example 37, 5-Amino-7-(3-cyanophenyl)-N-ethyl-8-(1-propyl-1H-pyrazol-5-yl)imidazo[1,2-c]pyrimidine-2-carboxamide] | < 10 | < 10
N#Cc1cccc(-c2nc(N)n3nc(Cc4ccccn4)nc3c2-c2cccc3ncccc23)c1 [Example 44, 3-(5-Amino-2-(pyridin-2-ylmethyl)-8-(quinolin-5-yl)-[1,2,4]triazolo[1,5-c]pyrimidin-7-yl)benzonitrile] | < 10 | 10 to 100
N#Cc1cccc(-c2nc(N)n3nc(Cc4c(F)cccc4CN4CCCS4(=O)=O)nc3c2-c2ccncn2)c1 [Example 86, 3-(5-Amino-2-(2-((1,1-dioxidoisothiazolidin-2-yl)methyl)-6-fluorobenzyl)-8-(pyrimidin-4-yl)-[1,2,4]triazolo[1,5-c]pyrimidin-7-yl)benzonitrile] | < 10 | < 10
N#Cc1cccc(-c2nc(N)n3nc(C(O)c4ccccc4)nc3c2-c2ncncc2F)c1 (centres unmarked) [Example 45, 3-(5-Amino-8-(5-fluoropyrimidin-4-yl)-2-(hydroxy(phenyl)methyl)-[1,2,4]triazolo[1,5-c]pyrimidin-7-yl)benzonitrile] | < 10 | < 10
Cc1ncoc1-c1c(-c2cccc(C#N)c2F)nc(N)n2nc(Cc3ccccn3)nc12 [Example 90, 3-(5-Amino-8-(4-methyloxazol-5-yl)-2-(pyridin-2-ylmethyl)-[1,2,4]triazolo[1,5-c]pyrimidin-7-yl)-2-fluorobenzonitrile] | < 10 | < 10
CN1CC(=O)N(Cc2cccc(F)c2Cc2nc3c(-c4ccncn4)c(-c4cccc(C#N)c4)nc(N)n3n2)C1=O [Example 87, 3-(5-Amino-2-(2-fluoro-6-((3-methyl-2,5-dioxoimidazolidin-1-yl)methyl)benzyl)-8-(pyrimidin-4-yl)-[1,2,4]triazolo[1,5-c]pyrimidin-7-yl)benzonitrile] | < 10 | < 10
CCNC(=O)c1cn2c(N)nc(-c3cccc(C#N)c3)c(-c3ccc(C(N)=O)cc3)c2n1 [Example 32, 5-Amino-8-(4-carbamoylphenyl)-7-(3-cyanophenyl)-N-ethylimidazo[1,2-c]pyrimidine-2-carboxamide] | < 10 | 100 to 1000
Cc1ncoc1-c1c(-c2cccc(C#N)c2)nc(N)n2nc(Cc3ncccc3CO)nc12 [Example 91, 3-(5-Amino-2-((3-(hydroxymethyl)pyridin-2-yl)methyl)-8-(4-methyloxazol-5-yl)-[1,2,4]triazolo[1,5-c]pyrimidin-7-yl)benzonitrile] | < 10 | < 10
CCn1nccc1-c1c(-c2cccc(C#N)c2)nc(N)n2nc(Cc3nn(C)c4ccccc34)nc12 [Example 56, 3-(5-Amino-8-(1-ethyl-1H-pyrazol-5-yl)-2-((1-methyl-1H-indazol-3-yl)methyl)-[1,2,4]triazolo[1,5-c]pyrimidin-7-yl)benzonitrile] | < 10 | 10 to 100
CCNC(=O)c1nc2c(-c3cc(C)nc(C)c3)c(-c3ccccc3)nc(N)n2c1Br [Example 20, 5-Amino-3-bromo-8-(2,6-dimethylpyridin-4-yl)-N-ethyl-7-phenylimidazo[1,2-c]pyrimidine-2-carboxamide] | < 10 | 100 to 1000
Cc1cccnc1Cc1nc2c(-c3ocnc3C)c(-c3cccc(C#N)c3)nc(N)n2n1 [Example 84, 3-(5-Amino-8-(4-methyloxazol-5-yl)-2-((3-methylpyridin-2-yl)methyl)-[1,2,4]triazolo[1,5-c]pyrimidin-7-yl)benzonitrile] | < 10 | < 10
Cc1cc(-c2c(-c3cccc(C#N)c3)nc(N)n3ccnc23)cc(C)n1 [Example 1, 3-(5-Amino-8-(2,6-dimethylpyridin-4-yl)imidazo[1,2-c]pyrimidin-7-yl)benzonitrile] | < 10 | 100 to 1000
N#Cc1cccc(-c2nc(N)n3nc(Cc4c(F)cccc4CN4C[C@@H](O)[C@H](F)C4)nc3c2-c2ccncn2)c1 [Example 72, 3-(5-Amino-2-(2-fluoro-6-(((3R,4R)-3-fluoro-4-hydroxypyrrolidin-1-yl)methyl)benzyl)-8-(pyrimidin-4-yl)-[1,2,4]triazolo[1,5-c]pyrimidin-7-yl)benzonitrile] | < 10 | 10 to 100
N#Cc1cccc(-c2nc(N)n3nc(C(NCCO)c4ccccc4)nc3c2-c2ccncc2)c1 (centres unmarked) [Example 47, 3-(5-Amino-2-((2-hydroxyethylamino)(phenyl)methyl)-8-(pyridin-4-yl)-[1,2,4]triazolo[1,5-c]pyrimidin-7-yl)benzonitrile] | < 10 | < 10
